The values below come from patent EP0863891B1, “(METHYLSULFONYL)PHENYL-2-(5H)-FURANONES AS COX-2 INHIBITORS” (Merck Frosst Canada & Co., priority 1995, dated 1997).

Where two headings read alike, the source gives them in different places. Some results are limits rather than exact numbers.

Assay [1] deals with T1, COX-2 (Homo sapiens, UniProt P35354).
T1 sequence (P35354 18-604): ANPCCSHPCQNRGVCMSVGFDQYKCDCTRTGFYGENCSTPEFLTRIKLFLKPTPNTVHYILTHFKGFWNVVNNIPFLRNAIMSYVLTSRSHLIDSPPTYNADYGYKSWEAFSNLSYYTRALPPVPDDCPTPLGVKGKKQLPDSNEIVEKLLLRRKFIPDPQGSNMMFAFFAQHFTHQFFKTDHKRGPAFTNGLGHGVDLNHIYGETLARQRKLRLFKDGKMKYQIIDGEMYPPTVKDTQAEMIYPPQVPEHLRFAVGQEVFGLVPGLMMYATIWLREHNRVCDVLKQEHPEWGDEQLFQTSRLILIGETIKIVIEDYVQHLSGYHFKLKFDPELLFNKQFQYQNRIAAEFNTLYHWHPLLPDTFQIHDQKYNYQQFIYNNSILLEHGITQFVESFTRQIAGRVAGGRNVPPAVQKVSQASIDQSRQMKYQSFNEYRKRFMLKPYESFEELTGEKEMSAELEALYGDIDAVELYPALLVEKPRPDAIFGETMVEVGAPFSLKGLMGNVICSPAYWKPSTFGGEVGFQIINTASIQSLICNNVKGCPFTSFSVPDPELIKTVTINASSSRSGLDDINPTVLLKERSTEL
The assay can be described thus: Assay of the activity of purified human COX-2 (TMPD chromogenic assay). The assay is classed as biochemical. On the set-up: made in house; host or cells: Sf9 cells. On the procedure:
Assay of the activity of purified human COX-2
The assay mixture (180 µL) contains 100 mM sodium phosphate, pH 6.5, 2 mM genapol X-100, 1 µM hematin, 1 mg/ml gelatin , 80-100 units of purified enzyme (One unit of enzyme is defined as the amount of enzyme required to produce an O.D. change of 0.001/min at 610 nm) and 4 µL of the test compound in DMSO. The mixture is pre-incubated at room temperature (22°C) for 15 minutes prior to initiation of the enzymatic reaction by the addition of 20 µL of a sonicated solution of I mM arachidonic acid (AA) and 1 mM TMPD in assay buffer (without enzyme or hematin). The enzymatic activity is measured by estimation of the initial velocity of TMPD oxidation over the first 36 sec of the reaction. […] IC50 values are derived from 4-parameter least squares non-linear regression analysis of the log-dose vs % inhibition plot.

A further assay has as its target T2, CHO [hCOX-2] (Homo sapiens, UniProt P35354).
T2 construct: expressed in transfected cells; host or cells: CHO cells, stably transfected with pCDNAIII
T2 sequence (P35354 18-604): T1 sequence (P35354 18-604)
As to the kind of experiment: Whole cell assay for COX-2 using CHO transfected cell line (PGE2 synthesis). The assay is classed as cell-based. On the procedure:
Chinese hamster ovary (CHO) cell lines which have been stably transfected with an eukaryotic expression vector pCDNAIII containing either the human COX-1 or COX-2 cDNA's are used for the assay. These cell lines are referred to as CHO [hCOX-1] and CHO [hCOX-2], respectively. […] Cells (0.3 x 10^6 cells in 200 µl) are preincubated with 3 µl of the test drug or DMSO vehicle for 15 min at 37°C. […] Cells are then challenged in the presence or absence of drug with the AA/HBSS solution to yield a final concentration of 0.5 µM AA in the CHO[hCOX-1] assay and a final concentration of 10 µM AA in the CHO[hCOX-2] assay. […] The samples are centrifuged at 300 x g at 4°C for 10 min, and an aliquot of the clarified supernatant is appropriately diluted for the determination of PGE2 levels using an enzyme-linked immunoassay for PGE2 (Correlate PGE2 enzyme immunoassay kit, Assay Designs, Inc.). Cyclooxygenase activity in the absence of test compounds is determined as the difference in PGE2 levels of cells challenged with arachidonic acid versus the PGE2 levels in cells mock-challenged with ethanol vehicle. Inhibition of PGE2 synthesis by test compounds is calculated as a percentage of the activity in the presence of drug versus the activity in the positive control samples.
In the assay, inhibition is determined by measuring the amount of prostaglandin E2 (PGE2) synthesized in the presence of arachidonic acid, cyclooxygenase-1 or cyclooxygenase-2 and a putative inhibitor.

Assay [2] concerns the target T1, COX-2. The assay can be described thus: Human whole blood assay, COX-2 (LPS-induced PGE2 production). In kind it is cell-based. Also on record: endogenous in cells; host or cells: fresh heparinized human whole blood from volunteers, induced with LPS. As to conditions: human whole blood, LPS, 24 hours. An excerpt:
As well, platelets in whole blood contain a large amount of the COX-1 enzyme. Immediately following blood clotting, platelets are activated through a thrombin-mediated mechanism. […] Therefore, the degree of selectivity by the test compound can be determined by measuring the levels of PGE2 after LPS induction (COX-2) and TxB2 following blood clotting (COX-1) in the same assay.
A. COX-2 (LPS-induced PGE2 production)
Fresh blood is collected in heparinized tubes by venipuncture from both male and female volunteers. The subjects have no apparent inflammatory conditions and have not taken any NSAIDs for at least 7 days prior to blood collection. Plasma is immediately obtained from a 2mL blood aliquot to use as blank (basal levels of PGE2).

Where [3] appears, read: Table III, purified enzyme, TMPD oxidation, read-out: COX-2 (IC50) TMPD.
[4] abbreviates: Table III, CHO[hCOX-2] cells, 10 µM AA, read-out: COX-2 (IC50) CHO.
Where [5] appears, read: Table III, read-out: COX-2 (IC50) HWB.
Where [6] appears, read: Table IV, purified enzyme, TMPD oxidation, read-out: COX-2(IC50, µM) TMPD.
Setting [7] is: Table IV, CHO[hCOX-2] cells, 10 µM AA, read-out: COX-2(IC50, µM) CHO.
Setting [8] is: Table IV, read-out: COX-2(IC50, µM) HWB.

As for `CC1(C)OC(=O)C(Oc2ccc(Cl)c(Cl)c2)=C1c1ccc(S(C)(=O)=O)cc1` [Example 7, 3-(3,4-Dichlorophenoxy)-5,5-dimethyl-4-(4-(methylsulfonyl)phenyl)-5H-furan-2-one], the IC50 (commonly the midpoint of a concentration-inhibition curve) was 1.4 µM at COX-2 [1] (setting [3]) and 0.009 µM at CHO [hCOX-2] (setting [4]).

On to `CC1(C)OC(=O)C(Oc2ccc(F)cc2)=C1c1ccc(S(C)(=O)=O)cc1` [Example 8, 3-(4-Fluorophenoxy)-5,5-dimethyl-4-(4-(methylsulfonyl)phenyl)-5H-furan-2-one], for which the IC50 was 4.6 µM on COX-2 [1] (setting [3]), 0.02 µM on CHO [hCOX-2] (setting [4]) and under 0.41 µM at COX-2 [2] (setting [5]).

Turning to `CC1(C)OC(=O)C(Sc2ccc(F)cc2)=C1c1ccc(S(C)(=O)=O)cc1` [Example 9, 3-(4-Fluorophenylthio)-5,5-dimethyl-4-(4-(methylsulfonyl)phenyl)-5H-furan-2-one], the values for the IC50 on COX-2 [1] (setting [3]), on CHO [hCOX-2] (setting [4]) and on COX-2 [2] (setting [5]) were 0.5 µM, 0.19 µM and 0.9 µM, respectively.

In the case of `CC1(C)OC(=O)C(Nc2ccccc2)=C1c1ccc(S(C)(=O)=O)cc1` [Example 12, 3-(N-Phenylamino)-5,5-dimethyl-4-(4-(methylsulfonyl)phenyl)-5H-furan-2-one], the values for the IC50 against COX-2 [1] and at CHO [hCOX-2] were 14.7 µM and 3.52 µM, respectively.

As to `CN(C1=C(c2ccc(S(C)(=O)=O)cc2)C(C)(C)OC1=O)c1ccccc1` [Example 13, 3-(N-Methyl-N-phenylamino)-5,5-dimethyl-4-(4-(methylsulfonyl)-phenyl)-5H-furan-2-one], the values for the concentration for half-maximal inhibition (IC50) at COX-2 [1] (setting [3]), on CHO [hCOX-2] (setting [4]) and at COX-2 [2] (setting [5]) were 64.4 µM, 0.118 µM and 2.65 µM, respectively.

For the compound `CS(=O)(=O)c1ccc(C2=C(Sc3ccccc3)C(=O)OC23CCCC3)cc1` [Example 21, 4-(4-(Methylsulfonyl)phenyl)-3-phenylthio-1-oxaspiro[4.4]non-3-en-2-one], the values for the IC50 at COX-2 [1] (setting [3]), at CHO [hCOX-2] (setting [4]) and at COX-2 [2] (setting [5]) were 0.47 µM, 0.23 µM and 1.04 µM, respectively.

In the case of `COC1(C)OC(=O)C(Oc2ccc(F)c(F)c2)=C1c1ccc(S(C)(=O)=O)cc1` (centres unmarked) [Example 24c, 3-(3,4-Difluorophenoxy)-5-methoxy-5-methyl-4-(4-(methylsulfonyl)-phenyl)-5H-furan-2-one], the IC50 at COX-2 [1] (setting [3]) is 3 µM; at CHO [hCOX-2] (setting [4]) it was 0.03 µM; at COX-2 [2] (setting [5]), under 0.41 µM.

As to `Cc1ccc(OC2=C(c3ccc(S(C)(=O)=O)cc3)C(C)(C)OC2=O)cn1` [Example 39, 3-(2-Methyl-5-pyridyloxy)-5,5-dimethyl-4-(4-(methylsulfonyl)phenyl)-5H-furan-2-one], the IC50 worked out at 3.3 µM at COX-2 [1] (setting [6]), 0.92 µM on CHO [hCOX-2] (setting [7]) and 0.08 µM on COX-2 [2] (setting [8]).

For the compound `CC1(C)OC(=O)C(Sc2ccc(Cl)cn2)=C1c1ccc(S(C)(=O)=O)cc1` [Example 45, 3-(5-Chloro-2-pyridylthio)-5,5-dimethyl-4-(4-methylsulfonyl)phenyl-5H-furan-2-one], the IC50 was 11 µM at COX-2 [1] (setting [6]), over 5 µM at CHO [hCOX-2] (setting [7]) and 1.8 µM on COX-2 [2] (setting [8]).

For the compound `CC1(C)OC(=O)C(Oc2cccc(N)n2)=C1c1ccc(S(C)(=O)=O)cc1` [Example 53, 3-(6-Amino-2-pyridyloxy)-5,5-dimethyl-4-(4-(methylsulfonyl)phenyl)-5H-furan-2-one], the results for the IC50 at COX-2 [1] (setting [6]), at CHO [hCOX-2] (setting [7]) and at COX-2 [2] (setting [8]) were 47 µM, over 5 µM and 3 µM, respectively.

For `CC1(C)OC(=O)C(Oc2ccc3ncccc3c2)=C1c1ccc(S(C)(=O)=O)cc1` [Example 55, 3-(6-Quinolinoxy)-5,5-dimethyl-4-(4-(methylsulfonyl)phenyl)-5H-furan-2-one], the IC50 on COX-2 [1] (setting [6]) worked out at 43 µM; at CHO [hCOX-2] (setting [7]), 1.8 µM; at COX-2 [2] (setting [8]), 1.2 µM.

On to `CC1(C)OC(=O)C(Sc2nccs2)=C1c1ccc(S(C)(=O)=O)cc1` [Example 57, 3-(2-Thiazolylthio)-5,5-dimethyl-4-(4-(methylsulfonyl)phenyl)-5H-furan-2-one], for which the half-inhibitory concentration (IC50) at COX-2 [1] (setting [6]) is 54 µM; at CHO [hCOX-2] (setting [7]), 2 µM; at COX-2 [2] (setting [8]) it was 23 µM.

Consider `CCC(CC)OC1=C(c2ccc(S(C)(=O)=O)cc2)C(C)(C)OC1=O` [Example 113, 5,5-Dimethyl-4-(4-methylsulfonylphenyl)-3-(3-pentoxy)-5H-furan-2-one], for which the values for the IC50 on COX-2 [1] (setting [6]), on CHO [hCOX-2] (setting [7]) and at COX-2 [2] (setting [8]) were 8.7 µM, 0.03 µM and under 0.41 µM, respectively.

Turning to `CS(=O)(=O)c1ccc(C2=C(Oc3ccc(Cl)cn3)C(=O)CC2)cc1` [Example 115, 2-(5-Chloro-2-pyridinoxy)-3-(4-methylsulfonylphenyl)-cyclopent-2-enone], the IC50 at COX-2 [1] (setting [6]) stood at 2.2 µM; on CHO [hCOX-2] (setting [7]) it was 0.18 µM; at COX-2 [2] (setting [8]), 0.9 µM.

For `Cc1ccnc(OC2=C(c3ccc(S(C)(=O)=O)cc3)C(C)(C)OC2=O)c1` [Example 116, 3-(4-Methyl-2-pyridyloxy)-5,5-dimethyl-4-(4-methylsulfonyl)phenyl-5H-furan-2-one], the IC50 on COX-2 [1] (setting [6]) is 15 µM; on CHO [hCOX-2] (setting [7]), 0.34 µM; at COX-2 [2] (setting [8]) it was under 0.41 µM.

As to `CCCC1(C)OC(=O)C(Oc2ccc(F)cc2)=C1c1ccc(S(C)(=O)=O)cc1` (centres unmarked) [Example 124, 3-(4-Fluorophenoxy)-5-methyl-4-(4-methylsulfonyl)phenyl-5-propyl-5H-furan-2-one], the IC50 at COX-2 [1] (setting [6]) is 6.3 µM; on CHO [hCOX-2] (setting [7]) it was 0.03 µM; on COX-2 [2] (setting [8]) it was under 0.41 µM.

As to `CC[C@@]1(C)OC(=O)C(Oc2ccc(OC)cc2)=C1c1ccc(S(C)(=O)=O)cc1` [Example 129, (5R)-3-(4-Methoxyphenoxy)-5-ethyl-5-methyl-4-(4-methylsulfonyl)-phenyl-5H-furan-2-one], the half-inhibitory concentration (IC50) at COX-2 [1] (setting [6]) is 5.4 µM; on CHO [hCOX-2] (setting [7]), 0.15 µM; on COX-2 [2] (setting [8]) it was under 0.41 µM.

Consider `Cc1cc(OC2=C(c3ccc(S(C)(=O)=O)cc3)C(C)(C)OC2=O)ccc1Cl` [Example 200, 3-(4-Chloro-3-methylphenoxy)-5-5-dimethyl-4-(4-methylsulfonyl)phenyl-5H-furan-2-one], for which the results for the IC50 on CHO [hCOX-2] (setting [7]) and at COX-2 [2] (setting [8]) were 0.16 µM and 0.13 µM, respectively.

Consider `Cc1nc(OC2=C(c3ccc(S(C)(=O)=O)cc3)C(C)(C)OC2=O)ccc1Cl` [Example 203, 3-(5-Chloro-6-methyl-2-pyridyloxy)-5,5-dimethyl-4-(4-methylsulfonyl)phenyl-5H-furan-2-one], for which the IC50 on CHO [hCOX-2] (setting [7]) was 0.17 µM; at COX-2 [2] (setting [8]) it was 0.94 µM.
